Results published in the CheMixHub ionic liquid set.

Assay: xn = mol fraction of the nth substance listed

CCOC(C)=O + CCO + CCCC[n+]1ccn(C)c1.O=S(=O)([N-]S(=O)(=O)C(F)(F)F)C(F)(F)F
298.15 K, 101 kPa
Conditions	viscosity [mPa·s]
x2 = 0.0086, x1 = 0.9023	0.967
x2 = 0.0173, x1 = 0.804	1.818
x2 = 0.0216, x1 = 0.8938	0.982
x2 = 0.026, x1 = 0.7051	3.29
x2 = 0.0299, x1 = 0.9014	0.806
x2 = 0.035, x1 = 0.6029	5.36
x2 = 0.0405, x1 = 0.8009	1.644
x2 = 0.0422, x1 = 0.521	7.65
x2 = 0.045, x1 = 0.8887	0.803
x2 = 0.0534, x1 = 0.3936	12.87
x2 = 0.0549, x1 = 0.8911	0.714
x2 = 0.0571, x1 = 0.9051	0.658
x2 = 0.0615, x1 = 0.7971	1.44
x2 = 0.0622, x1 = 0.2942	17.63
x2 = 0.0632, x1 = 0.6895	2.89
x2 = 0.0688, x1 = 0.2189	22.5
x2 = 0.0754, x1 = 0.1444	28.1
x2 = 0.0777, x1 = 0.6181	4.09
x2 = 0.0778, x1 = 0.1168	30.1
x2 = 0.08, x1 = 0.8998	0.526
x2 = 0.0815, x1 = 0.0753	34.1
x2 = 0.0882, x1 = 0.7818	1.308
x2 = 0.0925, x1 = 0.6947	2.35
x2 = 0.0953, x1 = 0.8644	0.656
x2 = 0.0984, x1 = 0.5164	6.16
x2 = 0.0997, x1 = 0.8023	1.05
x2 = 0.1177, x1 = 0.6116	3.32
x2 = 0.1191, x1 = 0.802	0.89
x2 = 0.1234, x1 = 0.3937	9.59
x2 = 0.125, x1 = 0.6908	1.976
x2 = 0.1404, x1 = 0.3101	13.03
x2 = 0.1414, x1 = 0.7989	0.789
x2 = 0.1455, x1 = 0.5201	4.81
x2 = 0.1477, x1 = 0.707	1.521
x2 = 0.1591, x1 = 0.8229	0.523
x2 = 0.1604, x1 = 0.6032	2.8
x2 = 0.1639, x1 = 0.1949	18.29
x2 = 0.1658, x1 = 0.7923	0.681
x2 = 0.1735, x1 = 0.1475	21.3
x2 = 0.183, x1 = 0.6956	1.289
x2 = 0.1841, x1 = 0.0957	24.4
x2 = 0.1843, x1 = 0.392	7.6
x2 = 0.1948, x1 = 0.043	28.1
x2 = 0.1978, x1 = 0.5106	3.97
x2 = 0.1995, x1 = 0.6042	2.19
x2 = 0.2059, x1 = 0.7708	0.557
x2 = 0.213, x1 = 0.2974	10.46
x2 = 0.2132, x1 = 0.6967	1.026
x2 = 0.2314, x1 = 0.6152	1.684
x2 = 0.2434, x1 = 0.1969	14.03
x2 = 0.2448, x1 = 0.6933	0.829
x2 = 0.2449, x1 = 0.394	5.82
x2 = 0.247, x1 = 0.51	3.05
x2 = 0.2609, x1 = 0.1391	16.65
x2 = 0.2729, x1 = 0.0996	18.5
x2 = 0.2797, x1 = 0.6021	1.324
x2 = 0.2857, x1 = 0.2933	8.02
x2 = 0.2868, x1 = 0.0538	21
x2 = 0.2924, x1 = 0.6745	0.658
x2 = 0.2972, x1 = 0.5057	2.33
x2 = 0.3062, x1 = 0.3928	4.4
x2 = 0.3201, x1 = 0.5989	1.006
x2 = 0.3236, x1 = 0.1993	10.53
x2 = 0.3448, x1 = 0.147	12.41
x2 = 0.3553, x1 = 0.4946	1.727
x2 = 0.356, x1 = 0.294	5.97
x2 = 0.3662, x1 = 0.094	14.33
x2 = 0.3681, x1 = 0.3878	3.28
x2 = 0.3736, x1 = 0.5842	0.736
x2 = 0.3833, x1 = 0.0516	16.14
x2 = 0.3974, x1 = 0.502	1.235
x2 = 0.4042, x1 = 0.1983	7.96
x2 = 0.4237, x1 = 0.3973	2.32
x2 = 0.4281, x1 = 0.288	4.46
x2 = 0.4291, x1 = 0.149	9.07
x2 = 0.4547, x1 = 0.0982	10.36
x2 = 0.4684, x1 = 0.4786	0.869
x2 = 0.4784, x1 = 0.0511	11.87
x2 = 0.4799, x1 = 0.3986	1.585
x2 = 0.4832, x1 = 0.1963	5.71
x2 = 0.508, x1 = 0.155	6.45
x2 = 0.5162, x1 = 0.2658	3.24
x2 = 0.5407, x1 = 0.1007	7.42
x2 = 0.5473, x1 = 0.3908	1.023
x2 = 0.5621, x1 = 0.2957	2.03
x2 = 0.5657, x1 = 0.1954	3.92
x2 = 0.574, x1 = 0.0452	8.7
x2 = 0.598, x1 = 0.1495	4.39
x2 = 0.6293, x1 = 0.2115	2.49
x2 = 0.6333, x1 = 0.0992	5.1
x2 = 0.6413, x1 = 0.2861	1.252
x2 = 0.6634, x1 = 0.0564	5.74
x2 = 0.6743, x1 = 0.1551	2.84
x2 = 0.7038, x1 = 0.1181	3.11
x2 = 0.7282, x1 = 0.1894	1.533
x2 = 0.7476, x1 = 0.0632	3.67
x2 = 0.7565, x1 = 0.1579	1.636
x2 = 0.8052, x1 = 0.1037	1.848
x2 = 0.8459, x1 = 0.0584	2.09

CCCC[n+]1ccn(C)c1.F[P-](F)(F)(F)(F)F + CCOC(C)=O
298.15 K
Conditions	electrical conductivity, x2 = 0.2746 [S/m]	electrical conductivity, x2 = 0.4156 [S/m]	electrical conductivity, x2 = 0.7532 [S/m]	electrical conductivity, x2 = 0.8821 [S/m]	viscosity, x2 = 0.2746 [mPa·s]	viscosity, x2 = 0.4156 [mPa·s]	viscosity, x2 = 0.6524 [mPa·s]	viscosity, x2 = 0.7532 [mPa·s]	viscosity, x2 = 0.8821 [mPa·s]
101 kPa	0.452	0.67	1.12	0.726	60.7	27.8	–	3.33	1.43
101.3 kPa	–	–	–	–	–	–	6.22	–	–

CC(=O)c1ccccc1 + CCOS(=O)(=O)[O-].CC[n+]1ccn(C)c1
100 kPa
Conditions	viscosity [mPa·s]
293.15 K, x1 = 0.7973	4.3
303.15 K, x1 = 0.2	27.1
303.15 K, x1 = 0.4002	16.4
303.15 K, x1 = 0.7973	5.3
303.15 K, x1 = 0.9502	2.48
303.15 K, x1 = 1	1.65
313.15 K, x1 = 0.6921	5.6
313.15 K, x1 = 0.8999	3.3
313.15 K, x1 = 0.9502	2
313.15 K, x1 = 1	1.37
323.15 K, x1 = 0.3008	10.7
323.15 K, x1 = 0.5999	5.8
323.15 K, x1 = 0.8999	1.94
323.15 K, x1 = 1	1.17
333.15 K, x1 = 0.0505	16.2
333.15 K, x1 = 0.0997	14.2

CC[n+]1ccn(C)c1.O=S(=O)([O-])O + CC[C@H](C)[C@H](N)C(=O)O + O
viscosity [mPa·s], 100 kPa
Conditions	293.15 K	298.15 K	303.15 K	308.15 K	313.15 K
x2 = 0, x1 = 0.0005421	1.046	0.929	0.824	0.75	0.678
x2 = 0, x1 = 0.0009056	1.068	0.949	0.843	0.759	0.684
x2 = 0, x1 = 0.001263	1.073	0.966	0.866	0.78	0.697
x2 = 0.0004219, x1 = 0.0009052	1.093	0.961	0.853	0.769	0.693
x2 = 0.0004673, x1 = 0.001263	1.101	0.979	0.878	0.79	0.708
x2 = 0.0005036, x1 = 0.0005418	1.075	0.943	0.837	0.762	0.69
x2 = 0.0007653, x1 = 0.0009049	1.113	0.97	0.862	0.777	0.701
x2 = 0.0008312, x1 = 0.0005417	1.094	0.953	0.845	0.77	0.697
x2 = 0.000832, x1 = 0.001262	1.122	0.989	0.887	0.799	0.716
x2 = 0.0009488, x1 = 0.0005416	1.1	0.956	0.848	0.773	0.7
x2 = 0.00107, x1 = 0.0009046	1.131	0.979	0.87	0.785	0.708
x2 = 0.001216, x1 = 0.001262	1.145	0.999	0.897	0.808	0.724
x2 = 0.001364, x1 = 0.001262	1.154	1.003	0.901	0.812	0.728
x2 = 0.001515, x1 = 0.0009042	1.157	0.991	0.881	0.795	0.717
x2 = 0.001572, x1 = 0.0005413	1.136	0.973	0.864	0.789	0.714
x2 = 0.001693, x1 = 0.0005412	1.143	0.977	0.867	0.792	0.717
x2 = 0.001746, x1 = 0.001261	1.176	1.013	0.91	0.821	0.736
x2 = 0.001796, x1 = 0.000904	1.174	0.999	0.888	0.802	0.724
x2 = 0.002205, x1 = 0.0009036	1.198	1.01	0.898	0.812	0.733
x2 = 0.002228, x1 = 0.0005409	1.174	0.991	0.881	0.805	0.729
x2 = 0.002256, x1 = 0.001261	1.206	1.027	0.923	0.833	0.747
x2 = 0.002728, x1 = 0.00126	1.23	1.04	0.935	0.844	0.758

CCCCCCCC/C=C\CCCCCCCC(=O)O + CC[N+](CC)(CC)CC.[Cl-]
100 kPa, x2 = 0.25
Conditions	viscosity [mPa·s]
293.1 K	268.5
313.2 K	95.4
323.2 K	61.9
